Results reported in article PMC10418735, “Lipophilic Studies and In Silico ADME Profiling of Biologically Active 2-Aminothiazol-4(5H)-one Derivatives” (International Journal of Molecular Sciences, 2023).

How the values were obtained:
[1] = Lipophilicity by RP-HPLC (methanol/water, RP-18 column); type: physicochemical; conditions: for −S (slope of the regression curve), RP–HPLC / log kw: methanol/water, RP-HPLC; for log kw: extrapolated to zero methanol concentration, 25 °C; for Φ0 (chromatographic lipophilicity parameter), RP–HPLC: Φ0 = −log kw/S
Protocol: The HPLC experiments were performed on the Shimadzu HPLC system (Kyoto, Japan) equipped with solvent delivery pump LC-20AD, UV–VIS detector model SPD-20A, degasser model DGU-20A5, a column oven model CTO-20A, and a column Superspher® 100 RP-18 (4 μm), Merck (Darmstadt, Germany). Methanol and water for HPLC from POCH (Gliwice, Poland) were used as solvents. Mobile phase methanol/water varied in the various ratios. Methanol concentration expressed as volume fraction v/v, varied in the range from 0.55 to 0.95 in constant steps of 0.05. Compounds 1–28 were dissolved in methanol (1 mg/mL). The mobile phase flow rate was 0.7 mL/min. The injection volume was 0.02 mL. All analyzes were performed at 25 °C. Experiments were performed in triplicate with similar results.
The retention coefficient k was calculated from the following relationship:(1) k=tr/tm−1, where tr [min]—retention time, and tm [min]—time for dead volume (measured by use of uracil).
To determine the linear relationship between the values of the log k parameter and the concentration of methanol in the mobile phase, the Soczewiński–Wachtmeister equation was used:(2) logk= log kw+SΦ, where log kw —value extrapolated to zero methanol concentration, Φ —methanol concentration in the mobile phase (volume fraction v/v), and S—the slope of the regression curve.
The parameter Φ0 was calculated from the equation:(3) Φ0=−log kw/S.

[2] = Lipophilicity by RP-TLC (methanol/water, HPTLC 60RP-18 plates); type: physicochemical; conditions: for −S (slope of the regression curve), RP–TLC / RM0: methanol/water, RP-TLC; for RM0: extrapolated to zero methanol concentration, 22 °C; for Φ0 (chromatographic lipophilicity parameter), RP–TLC: Φ0 = −RM0/S
Protocol: Specifically, 10 × 10 cm plates with silica gel HPTLC 60RP-18 WF254s (Merck, Darmstadt, Niemcy) were used as the stationary phase. Methanol and water for HPLC from POCH (Gliwice, Poland) were used as solvents. Methanol concentration expressed as volume fraction v/v, varied in the range from 0.5 to 0.7 in constant steps of 0.05. Test compounds were dissolved in methanol (2 mg/mL), and then samples (0.01 mL) of each were applied to plates, which were developed in a horizontal DS chamber (Chromdes, Lublin, Poland).
The developing distance was 8 cm. Developed plates were air-dried and observed under 254 nm ultraviolet lamp. All analyzes were performed at 22 °C. Experiments were performed in triplicate with similar results.
For all the compounds, the relative lipophilicity RM values for five methanol–water mobile phases were calculated by the use of the following formula:(4) RM=log[1−RF/RF].
The linear relationship between the RM values and the concentration of methanol in the mobile phase to determine the lipophilicity parameters RM0 is described by the following equation:(5) RM=RM0+SΦ, where Φ —methanol concentration in the mobile phase (volume fraction v/v), and S—the slope of the regression curve.
The quantity Φ0 was calculated from the following equation:(6) Φ0=−RM0/S.

## CCCC1SC(NC23CC4CC(CC(C4)C2)C3)=NC1=O (stereo not drawn) [Compound 21]
[1]
  −S (slope of the regression curve), RP–HPLC: 4.859
  log kw: 4.08
  Φ0 (chromatographic lipophilicity parameter), RP–HPLC: 0.840
[2]
  −S (slope of the regression curve), RP–TLC: 2.564
  RM0: 2.33
  Φ0 (chromatographic lipophilicity parameter), RP–TLC: 0.909

## CC(C)NC1=NC(=O)C(C)(C)S1 [Compound 5]
[1]
  −S (slope of the regression curve), RP–HPLC: 3.400
  log kw: 1.94
  Φ0 (chromatographic lipophilicity parameter), RP–HPLC: 0.571
[2]
  −S (slope of the regression curve), RP–TLC: 1.903
  RM0: 1.20
  Φ0 (chromatographic lipophilicity parameter), RP–TLC: 0.629

## CC1SC(NC23CC4CC(CC(C4)C2)C3)=NC1=O (stereo not drawn) [Compound 19]
[1]
  −S (slope of the regression curve), RP–HPLC: 4.099
  log kw: 3.22
  Φ0 (chromatographic lipophilicity parameter), RP–HPLC: 0.786
[2]
  −S (slope of the regression curve), RP–TLC: 3.148
  RM0: 2.55
  Φ0 (chromatographic lipophilicity parameter), RP–TLC: 0.810

## CCC1SC(NC23CC4CC(CC(C4)C2)C3)=NC1=O (stereo not drawn) [Compound 20]
[1]
  −S (slope of the regression curve), RP–HPLC: 4.437
  log kw: 3.6
  Φ0 (chromatographic lipophilicity parameter), RP–HPLC: 0.811
[2]
  −S (slope of the regression curve), RP–TLC: 2.678
  RM0: 2.30
  Φ0 (chromatographic lipophilicity parameter), RP–TLC: 0.860

## CCCC1SC(NC(C)C)=NC1=O (stereo not drawn) [Compound 3]
[1]
  −S (slope of the regression curve), RP–HPLC: 3.494
  log kw: 2.28
  Φ0 (chromatographic lipophilicity parameter), RP–HPLC: 0.652
[2]
  −S (slope of the regression curve), RP–TLC: 2.422
  RM0: 1.63
  Φ0 (chromatographic lipophilicity parameter), RP–TLC: 0.673

## CC(C)NC1=NC(=O)C2(CCCCC2)S1 [Compound 8]
[1]
  −S (slope of the regression curve), RP–HPLC: 4.170
  log kw: 2.97
  Φ0 (chromatographic lipophilicity parameter), RP–HPLC: 0.712
[2]
  −S (slope of the regression curve), RP–TLC: 2.877
  RM0: 2.04
  Φ0 (chromatographic lipophilicity parameter), RP–TLC: 0.709

## CCC1SC(NC(C)C)=NC1=O (stereo not drawn) [Compound 2]
[1]
  −S (slope of the regression curve), RP–HPLC: 3.254
  log kw: 1.86
  Φ0 (chromatographic lipophilicity parameter), RP–HPLC: 0.571
[2]
  −S (slope of the regression curve), RP–TLC: 2.075
  RM0: 1.39
  Φ0 (chromatographic lipophilicity parameter), RP–TLC: 0.668

## O=C1CSC(NC23CC4CC(CC(C4)C2)C3)=N1 [Compound 28, 2-(Adamantylamino)thiazol-4(5H)-one]
[1]
  −S (slope of the regression curve), RP–HPLC: 3.783
  log kw: 2.87
  Φ0 (chromatographic lipophilicity parameter), RP–HPLC: 0.759
[2]
  −S (slope of the regression curve), RP–TLC: 2.482
  RM0: 2.06
  Φ0 (chromatographic lipophilicity parameter), RP–TLC: 0.832

## CCCC1SC(NC(C)(C)C)=NC1=O (stereo not drawn) [Compound 12]
[1]
  −S (slope of the regression curve), RP–HPLC: 3.606
  log kw: 2.46
  Φ0 (chromatographic lipophilicity parameter), RP–HPLC: 0.682
[2]
  −S (slope of the regression curve), RP–TLC: 2.426
  RM0: 1.71
  Φ0 (chromatographic lipophilicity parameter), RP–TLC: 0.703

## CC(C)(C)NC1=NC(=O)C(c2ccc(Br)cc2)S1 (stereo not drawn) [Compound 16]
[1]
  −S (slope of the regression curve), RP–HPLC: 4.537
  log kw: 3.38
  Φ0 (chromatographic lipophilicity parameter), RP–HPLC: 0.745
[2]
  −S (slope of the regression curve), RP–TLC: 4.131
  RM0: 3.20
  Φ0 (chromatographic lipophilicity parameter), RP–TLC: 0.774

## CC(C)NC1=NC(=O)C(C(C)C)S1 (stereo not drawn) [Compound 4]
[1]
  −S (slope of the regression curve), RP–HPLC: 3.603
  log kw: 2.28
  Φ0 (chromatographic lipophilicity parameter), RP–HPLC: 0.633
[2]
  −S (slope of the regression curve), RP–TLC: 2.127
  RM0: 1.41
  Φ0 (chromatographic lipophilicity parameter), RP–TLC: 0.663

## CC(C)NC1=NC(=O)C(C)S1 (stereo not drawn) [Compound 1, 5-methyl-2-isopropylaminothiazol-4(5H)-one]
[1]
  −S (slope of the regression curve), RP–HPLC: 2.975
  log kw: 1.35
  Φ0 (chromatographic lipophilicity parameter), RP–HPLC: 0.454
[2]
  −S (slope of the regression curve), RP–TLC: 1.280
  RM0: 0.94
  Φ0 (chromatographic lipophilicity parameter), RP–TLC: 0.734

## CC(C)(C)NC1=NC(=O)C2(CCC2)S1 [Compound 18]
[1]
  −S (slope of the regression curve), RP–HPLC: 3.297
  log kw: 2.15
  Φ0 (chromatographic lipophilicity parameter), RP–HPLC: 0.652
[2]
  −S (slope of the regression curve), RP–TLC: 2.476
  RM0: 1.69
  Φ0 (chromatographic lipophilicity parameter), RP–TLC: 0.683

## CC(C)(C)NC1=NC(=O)C(C)(C)S1 [Compound 14]
[1]
  −S (slope of the regression curve), RP–HPLC: 3.320
  log kw: 2.02
  Φ0 (chromatographic lipophilicity parameter), RP–HPLC: 0.608
[2]
  −S (slope of the regression curve), RP–TLC: 1.826
  RM0: 1.19
  Φ0 (chromatographic lipophilicity parameter), RP–TLC: 0.652

## CC(C)(C)NC1=NC(=O)C(c2ccccc2)S1 (stereo not drawn) [Compound 15]
[1]
  −S (slope of the regression curve), RP–HPLC: 4.449
  log kw: 3.25
  Φ0 (chromatographic lipophilicity parameter), RP–HPLC: 0.730
[2]
  −S (slope of the regression curve), RP–TLC: 4.293
  RM0: 3.17
  Φ0 (chromatographic lipophilicity parameter), RP–TLC: 0.739

## O=C1N=C(NC23CC4CC(CC(C4)C2)C3)SC1c1ccc(Br)cc1 (stereo not drawn) [Compound 25, 2-(adamantan-1-ylamino)-5-(4-bromophenyl)thiazol-4(5H)-one]
[1]
  −S (slope of the regression curve), RP–HPLC: 5.578
  log kw: 5.63
  Φ0 (chromatographic lipophilicity parameter), RP–HPLC: 1.009
[2]
  −S (slope of the regression curve), RP–TLC: 3.277
  RM0: 3.56
  Φ0 (chromatographic lipophilicity parameter), RP–TLC: 1.086

## O=C1N=C(NC23CC4CC(CC(C4)C2)C3)SC12CCC2 [Compound 27]
[1]
  −S (slope of the regression curve), RP–HPLC: 4.383
  log kw: 3.66
  Φ0 (chromatographic lipophilicity parameter), RP–HPLC: 0.835
[2]
  −S (slope of the regression curve), RP–TLC: 3.025
  RM0: 2.56
  Φ0 (chromatographic lipophilicity parameter), RP–TLC: 0.847

## O=C1N=C(NC23CC4CC(CC(C4)C2)C3)SC1c1ccccc1 (stereo not drawn) [Compound 24, 2-(adamantan-1-ylamino)-5-phenylthiazol-4(5H)-one]
[1]
  −S (slope of the regression curve), RP–HPLC: 5.024
  log kw: 4.13
  Φ0 (chromatographic lipophilicity parameter), RP–HPLC: 0.822
[2]
  −S (slope of the regression curve), RP–TLC: 4.203
  RM0: 3.31
  Φ0 (chromatographic lipophilicity parameter), RP–TLC: 0.787
